Laboratory results as given in the supplement of paper PMC11451515.

System: SEM cells
Assay: cell viability relative to DMSO control; higher = less cytotoxic
Settings: 48 h
Summary of the method: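 Viability was expressed as a per-plate percentage of DMSO wells, with cell-free wells as background. Leukemia cells (NOMO1 or SEM at 500 cells/well, P12-Ichikawa at 1000 cells/well) were adapted for at least four passages in each medium and seeded in 1536-well plates (5 μl). Library compounds in DMSO were pin-dosed over an 11-point threefold series from 47 μM to 0.79 nM, and CellTiter-Glo One luminescence was read after 48 h at 37°C.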

[1] = RPMI 5 mM glucose + 10% FBS, 0.000781 µM
[2] = RPMI 5 mM glucose + 10% FBS, 0.00234 µM
[3] = RPMI 5 mM glucose + 10% FBS, 0.00702 µM
[4] = RPMI 5 mM glucose + 10% FBS, 0.0211 µM
[5] = RPMI 5 mM glucose + 10% FBS, 0.0632 µM
[6] = RPMI 5 mM glucose + 10% FBS, 0.19 µM
[7] = RPMI 5 mM glucose + 10% FBS, 0.569 µM
[8] = RPMI 5 mM glucose + 10% FBS, 1.71 µM
[9] = RPMI 5 mM glucose + 10% FBS, 5.12 µM
[10] = RPMI 5 mM glucose + 10% FBS, 15.4 µM
[11] = RPMI 5 mM glucose + 10% FBS, 46.1 µM
[12] = RPMI 5 mM glucose + 10% dialyzed FBS, 0.000781 µM
[13] = RPMI 5 mM glucose + 10% dialyzed FBS, 0.00234 µM
[14] = RPMI 5 mM glucose + 10% dialyzed FBS, 0.00702 µM
[15] = RPMI 5 mM glucose + 10% dialyzed FBS, 0.0211 µM
[16] = RPMI 5 mM glucose + 10% dialyzed FBS, 0.0632 µM
[17] = RPMI 5 mM glucose + 10% dialyzed FBS, 0.19 µM
[18] = RPMI 5 mM glucose + 10% dialyzed FBS, 0.569 µM
[19] = RPMI 5 mM glucose + 10% dialyzed FBS, 1.71 µM
[20] = RPMI 5 mM glucose + 10% dialyzed FBS, 5.12 µM
[21] = RPMI 5 mM glucose + 10% dialyzed FBS, 15.4 µM
[22] = RPMI 5 mM glucose + 10% dialyzed FBS, 46.1 µM
[23] = HPLM + 10% dialyzed FBS, 0.000781 µM
[24] = HPLM + 10% dialyzed FBS, 0.00234 µM
[25] = HPLM + 10% dialyzed FBS, 0.00702 µM
[26] = HPLM + 10% dialyzed FBS, 0.0211 µM
[27] = HPLM + 10% dialyzed FBS, 0.0632 µM
[28] = HPLM + 10% dialyzed FBS, 0.19 µM
[29] = HPLM + 10% dialyzed FBS, 0.569 µM
[30] = HPLM + 10% dialyzed FBS, 1.71 µM
[31] = HPLM + 10% dialyzed FBS, 5.12 µM
[32] = HPLM + 10% dialyzed FBS, 15.4 µM
[33] = HPLM + 10% dialyzed FBS, 46.1 µM

Row | Structure (SMILES) | cell viability [1] [%] | cell viability [2] [%] | cell viability [3] [%] | cell viability [4] [%] | cell viability [5] [%] | cell viability [6] [%] | cell viability [7] [%] | cell viability [8] [%] | cell viability [9] [%] | cell viability [10] [%] | cell viability [11] [%] | cell viability [12] [%] | cell viability [13] [%] | cell viability [14] [%] | cell viability [15] [%] | cell viability [16] [%] | cell viability [17] [%] | cell viability [18] [%] | cell viability [19] [%] | cell viability [20] [%] | cell viability [21] [%] | cell viability [22] [%] | cell viability [23] [%] | cell viability [24] [%] | cell viability [25] [%] | cell viability [26] [%] | cell viability [27] [%] | cell viability [28] [%] | cell viability [29] [%] | cell viability [30] [%] | cell viability [31] [%] | cell viability [32] [%] | cell viability [33] [%]
1 | C[S+](=O)([O-])c1cccc(CNc2nc(Nc3ccc4c(c3)CCC(=O)N4)ncc2C(F)(F)F)c1 | 112 | 126 | 119 | 127 | 105 | 125 | 109 | 71.5 | 63.1 | 30.6 | 8.79 | 111 | 114 | 98.4 | 110 | 101 | 94.9 | 87.3 | 74.4 | 49.9 | 20.5 | 4.38 |  |  |  |  |  |  |  |  |  |  | 
2 | CC(C)C[C@H](NC(=O)CNC(=O)c1cc(Cl)ccc1Cl)B(O)O | 88.4 | 85.9 | 103 | 15.2 | 113 | 11.4 | 7.76 | 5.7 | 4.81 | 3.3 | 2.05 | 83.2 | 68.2 | 90.6 | 16.8 | 107 | 17.6 | 7.97 | 6.58 | 5.53 | 4.01 | 2.9 | 86.3 | 77.4 | 109 | 19.6 | 107 | 12.5 | 7.52 | 6.82 | 6.78 | 4.58 | 3.36
3 | C[C@]12CC[C@H]3[C@@H](C\C=C/4C[C@@H](O)CC[C@]34C)[C@@H]1CCC2=O | 108 | 114 | 121 | 135 | 136 | 111 | 135 | 115 | 93.1 | 116 | 97.5 | 112 | 97.1 | 118 | 128 | 127 | 136 | 130 | 121 | 94.3 | 115 | 112 | 103 | 98.2 | 91.1 | 102 | 98.4 | 94.6 | 99.8 | 98.2 | 83.4 | 107 | 103
4 | CCC\C1=C\C(=O)NC(=S)N1 | 63.3 | 91.9 | 102 | 28 | 121 | 124 | 6.88 | 22.9 | 93.1 | 52.2 | 65 | 69.2 | 74.8 | 91.7 | 54.4 | 89.8 | 125 | 6.6 | 20.3 | 92.4 | 43.1 | 50.8 | 71.1 | 74.2 | 98.3 | 30.6 | 119 | 91.1 | 7.27 | 27.9 | 79.2 | 51.5 | 75.9
5 | OC(=O)C(CC/1=C/C(=O)NC2=CC=CC=C12)NC(=O)C3=CC=C(Cl)C=C3 (configuration not stated) | 113 | 109 | 106 | 113 | 133 | 112 | 116 | 112 | 121 | 126 | 104 | 120 | 105 | 126 | 130 | 118 | 119 | 135 | 117 | 131 | 119 | 120 | 94.7 | 93.9 | 108 | 106 | 108 | 107 | 116 | 105 | 121 | 121 | 112
6 | [O-]C(=O)C1=C(C(=C(Cl)C(=C1Cl)Cl)Cl)C/2=C/3\C=C(I)/C(=O)/C(=C3OC4=C2C=C(I)C(=C4I)[O-])I | 108 | 121 | 130 | 133 | 134 | 113 | 115 | 130 | 114 | 109 | 83.2 |  |  |  |  |  |  |  |  |  |  |  | 111 | 106 | 122 | 106 | 118 | 111 | 120 | 116 | 106 | 109 | 73
7 | CN1CCN2c3ncccc3Cc3ccccc3C2C1 (configuration not stated) | 116 | 116 | 108 | 121 | 114 | 129 | 16.9 | 122 | 127 | 111 | 97 | 137 | 116 | 113 | 124 | 134 | 136 | 28.7 | 129 | 126 | 124 | 122 | 115 | 91.6 | 101 | 97.4 | 98.9 | 106 | 22 | 112 | 112 | 89.5 | 101
8 | CN1CCC[C@@H]1CCO[C@](C)(c1ccccc1)c1ccc(Cl)cc1 | 103 | 116 | 118 | 117 | 115 | 115 | 112 | 114 | 124 | 118 | 97.4 | 86.1 | 110 | 107 | 104 | 114 | 121 | 109 | 116 | 115 | 118 | 93 | 85.8 | 96.5 | 102 | 104 | 122 | 108 | 99.1 | 115 | 111 | 104 | 81.4
